Patent publication US20030203373A1 (priority 2002, published 2003)
“And” between values parts separate entries of the source, which are not always exact repeats. Identical values can stand only once.

Target: T1, ACE from pig kidney (Sus scrofa, UniProt F1RRW5)
T1 construct: 1 mU ACE from pig kidney (EC 3.4.15.1 (Sigma)); purchased Sigma; host or cells: pig kidney (tissue-derived enzyme)
T1 sequence (F1RRW5 34-1309): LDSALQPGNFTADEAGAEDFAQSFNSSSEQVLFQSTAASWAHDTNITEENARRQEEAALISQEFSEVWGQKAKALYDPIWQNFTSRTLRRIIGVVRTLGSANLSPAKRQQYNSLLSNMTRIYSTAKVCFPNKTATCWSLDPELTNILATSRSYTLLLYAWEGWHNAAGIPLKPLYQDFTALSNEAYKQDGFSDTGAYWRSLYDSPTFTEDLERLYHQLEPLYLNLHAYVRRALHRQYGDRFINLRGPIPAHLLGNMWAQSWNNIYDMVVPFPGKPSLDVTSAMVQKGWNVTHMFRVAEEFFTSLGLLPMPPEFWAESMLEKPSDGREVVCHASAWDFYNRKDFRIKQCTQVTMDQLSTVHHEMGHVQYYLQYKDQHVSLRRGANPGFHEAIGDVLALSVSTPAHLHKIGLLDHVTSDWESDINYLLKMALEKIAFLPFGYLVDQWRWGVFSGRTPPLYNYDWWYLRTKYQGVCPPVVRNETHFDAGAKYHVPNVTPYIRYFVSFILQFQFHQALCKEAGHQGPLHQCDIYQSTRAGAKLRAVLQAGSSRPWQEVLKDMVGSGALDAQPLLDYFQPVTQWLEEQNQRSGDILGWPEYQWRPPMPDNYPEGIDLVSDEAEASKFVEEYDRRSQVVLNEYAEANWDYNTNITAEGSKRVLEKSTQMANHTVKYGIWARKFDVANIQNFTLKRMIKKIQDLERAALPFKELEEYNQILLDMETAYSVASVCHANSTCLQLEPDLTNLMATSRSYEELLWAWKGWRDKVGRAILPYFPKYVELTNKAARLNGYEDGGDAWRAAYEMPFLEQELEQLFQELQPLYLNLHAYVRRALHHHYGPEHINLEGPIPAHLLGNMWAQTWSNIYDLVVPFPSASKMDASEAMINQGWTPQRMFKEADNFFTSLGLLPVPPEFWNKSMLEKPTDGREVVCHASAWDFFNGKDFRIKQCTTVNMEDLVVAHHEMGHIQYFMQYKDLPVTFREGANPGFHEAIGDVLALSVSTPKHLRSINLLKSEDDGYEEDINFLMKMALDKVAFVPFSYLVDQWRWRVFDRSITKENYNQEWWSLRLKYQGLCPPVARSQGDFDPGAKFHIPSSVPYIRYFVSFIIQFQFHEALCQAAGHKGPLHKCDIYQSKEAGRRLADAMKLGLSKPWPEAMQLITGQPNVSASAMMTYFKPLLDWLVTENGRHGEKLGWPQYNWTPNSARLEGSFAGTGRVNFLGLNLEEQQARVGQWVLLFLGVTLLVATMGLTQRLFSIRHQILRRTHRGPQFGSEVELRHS
Assay: biochemical
Type: biochemical
How it was run: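 Pig kidney ACE (1 mU) in 25 mM HEPES, 0,3 M NaCl, pH 8,2 was mixed with inhibitor solutions (0,35-200 μM) and started with 2 mM hippuryl-histidyl-leucine solution. After 30 min at 22° C the reaction was stopped with NaOH and the product derivatized with ortho-phthalaldehyde for fluorescence. IC50 was read graphically from % inhibition curves.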

[1] = inhibitor 0.78125 μM, replicates A-D
[2] = inhibitor 1.5625 μM, replicates A-D
[3] = inhibitor 3.125 μM, replicates A-D
[4] = inhibitor 6.25 μM, replicates A-D
[5] = inhibitor 12.5 μM, replicates A-D
[6] = inhibitor 25 μM, replicates A-D
[7] = inhibitor 50 μM, replicates A-D
[8] = inhibitor 100 μM, replicates A-D
[9] = inhibitor 200 μM, replicates A-D

CC(C)C[C@H](NC(=O)[C@H](C)N)C(=O)N[C@@H](CO)C(=O)N1CCC[C@H]1C(=O)N[C@@H](CC(C)C)C(=O)N1CCC[C@H]1C(=O)N[C@@H](CCC(=O)O)C(=O)N[C@H](C(=O)N1CCC[C@H]1C(=O)N1CCC[C@H]1C(=O)O)C(C)C [Peptide S545]
IC50 (ACE from pig kidney, determined graphically, read-out: IC50-value (ACE inhibition)): 2400 nM | fluorescence reading (ACE Inhibitor Assay) (inhibitor 0.39 μM, replicates A-D): 811412 and 841911 and 876502 and 774338 | % inhibition (ACE Inhibitor Assay) (inhibitor 0.39 μM, replicates A-D, 0.39 µM): 12.66% and 9.36% and 5.61% and 16.67% | fluorescence reading (ACE Inhibitor Assay) [1]: 726277 and 720995 and 719037 and 692816 | inhibition at 0.78125 µM [1]: 21.9% | % inhibition (ACE Inhibitor Assay) (inhibitor 0.78125 μM, replicates A-D, 0.78125 µM): 22.45% and 22.66% and 25.5% | fluorescence reading (ACE Inhibitor Assay) [2]: 541353 and 551184 and 577933 and 551569 | inhibition at 1.5625 µM [2]: 41.9% | % inhibition (ACE Inhibitor Assay) (inhibitor 1.5625 μM, replicates A-D, 1.5625 µM): 40.85% and 37.95% and 40.8% | fluorescence reading (ACE Inhibitor Assay) [3]: 405396 and 408086 and 447790 and 392263 | inhibition at 3.125 µM [3]: 56.6% | % inhibition (ACE Inhibitor Assay) (inhibitor 3.125 μM, replicates A-D, 3.125 µM): 56.36% and 52.05% and 58.06% | fluorescence reading (ACE Inhibitor Assay) [4]: 251538 and 279216 and 263340 and 250076 | inhibition at 6.25 µM [4]: 73.3% | % inhibition (ACE Inhibitor Assay) (inhibitor 6.25 μM, replicates A-D, 6.25 µM): 70.3% and 72.02% and 73.46% | fluorescence reading (ACE Inhibitor Assay) [5]: 174037 and 177324 and 175378 and 177772 | inhibition at 12.5 µM [5]: 81.7% | % inhibition (ACE Inhibitor Assay) (inhibitor 12.5 μM, replicates A-D, 12.5 µM): 81.34% and 81.55% and 81.29% | fluorescence reading (ACE Inhibitor Assay) [6]: 108586 and 113328 and 113458 and 104078 | inhibition at 25 µM [6]: 88.8% | % inhibition (ACE Inhibitor Assay) (inhibitor 25 μM, replicates A-D, 25 µM): 88.27% and 88.26% and 89.27% | fluorescence reading (ACE Inhibitor Assay) [7]: 53158 and 63009 and 54447 and 48696 | inhibition at 50 µM [7]: 94.8% | % inhibition (ACE Inhibitor Assay) (inhibitor 50 μM, replicates A-D, 50 µM): 93.72% and 94.65% and 95.27% | fluorescence reading (ACE Inhibitor Assay) [8]: 28035 and 29130 and 30237 and 28568 | inhibition at 100 µM [8]: 97.5% | % inhibition (ACE Inhibitor Assay) (inhibitor 100 μM, replicates A-D, 100 µM): 97.39% and 97.27% and 97.45% | fluorescence reading (ACE Inhibitor Assay) [9]: 17677 and 17238 and 18084 and 18937 | inhibition at 200 µM [9]: 98.6% | % inhibition (ACE Inhibitor Assay) (inhibitor 200 μM, replicates A-D, 200 µM): 98.68% and 98.59% and 98.5% | fold higher dose necessary in the ACE-assay to reach the same effect as with Captopril (relative to Captopril): 1000 fold
